Laboratory results published in patent US20150297629A1, “MODULATION OF RENIN-ANGIOTENSIN SYSTEM (RAS) RELATED DISEASES BY ANGIOTENSINOGEN” (Isis Pharmaceuticals, Inc,, priority 2012, published 2015).
Oligonucleotides are written 5' to 3', each unit as a sugar letter and its base; * is a phosphorothioate linkage, no mark a phosphodiester; rarer units and linkages stand in square brackets, end groups in braces. Plain capitals give the bases only. e = 2'-O-(2-methoxyethyl) (MOE); [5mC] = 5-methylcytosine; d = 2'-deoxy (DNA)

Key:
[1] = test system: angiotensinogen; assay: Immunohistochemical analysis of liver, cardiac and kidney tissues in SHR, Study 3; type: in vivo, Spontaneously hypertensive (SHR) rats; conditions: 100 mg/kg/week for 3 weeks, compared to the PBS control
Protocol: A group of SHR was injected with 100 mg/kg/week of ISIS 552668 administered for 3 weeks. A control group of SHR was injected with phosphate buffered saline (PBS) administered weekly for 3 weeks. Another control group of SHR was injected with 100 mg/kg/week of a control oligonucleotide (a nucleotide not targeted to angiotensinogen) administered for 3 weeks.

[2] = test system: SHR; assay: Mean arterial pressure by tail-cuff method in SHR, Study 3; type: in vivo, Spontaneously hypertensive (SHR) rats; conditions: ISIS 552668 and control oligonucleotide 100 mg/kg/week, Captopril 150 mg/kg/day
Protocol: A control group of SHR was injected with phosphate buffered saline (PBS) administered weekly for 3 weeks. Another control group of SHR was injected with 100 mg/kg/week of a control oligonucleotide (a nucleotide not targeted to angiotensinogen) administered for 3 weeks. […] Mean arterial pressure (MAP) in the rats was measured by the tail-cuff volume-pressure method (Kent Scientific, Torrington, Conn.).

[3] = test system: SHR; assay: Systolic blood pressure by tail-cuff method in SHR before and after ISIS 552668 added to chronic Captopril, Study 4; type: in vivo, Spontaneously hypertensive (SHR) rats; conditions: no Captopril
[4] = test system: Dahl/SS rats; assay: Blood pressure by tail-cuff method in Dahl/SS rats; type: in vivo, Dahl/Salt Sensititive (Dahl/SS) rats; conditions: female Dahl/SS rats, 8% NaCl diet; 3 weeks; ISIS oligonucleotides 40 mg/kg/week, Captopril 150 mg/kg daily
Protocol: The rats were fed a diet with 8% NaCl. A group of female Dahl/SS rats was injected with 40 mg/kg/week of ISIS 552668 administered for 3 weeks. A group of female Dahl/SS rats was injected with 40 mg/kg/week of control oligonucleotides ISIS 141923 administered for 3 weeks. […] A control group of female Dahl/SS rats was injected with phosphate buffered saline (PBS) administered weekly for 3 weeks. Another control group constituted a group of Dahl/Salt Resistant (Dahl/SR) rats injected with phosphate buffered saline (PBS) administered weekly for 3 weeks.
Systolic blood pressure (SBP), mean arterial pressure (MAP), and diastolic blood pressure (DBP) in the rats was measured by the tail-cuff volume-pressure method (Kent Scientific). The results are presented in Table 12, expressed as the percent decrease in blood pressure compared to the control SHR group.

Substance: ISIS 552668: 5-10-5 MOE gapmer CACTGATTTTTGCCCAGGAT (SEQ ID NO: 17), phosphorothioate linkages, 5-methylcytosines, targeted to rat angiotensinogen (antisense e[5mC]*eA*e[5mC]*eT*eG*dA*dT*dT*dT*dT*dT*dG*d[5mC]*d[5mC]*d[5mC]*eA*eG*eG*eA*eT)
- Angiotensinogen in liver, cardiac and kidney tissues by immunohistochemical analysis [1]: significant reduction of angiotensinogen
- MAP, Week 1 [2]: 117 mm Hg
- MAP, Week 2 [2]: 104 mm Hg
- MAP, Week 3 [2]: 109 mm Hg
- Blood pressure (SBP), Before ISIS 552668 dosing ([3]; ISIS 552668 50 mg/kg/week): 146
- Blood pressure (SBP), Before ISIS 552668 dosing ([3]; ISIS 552668 100 mg/kg/week): 131
- DBP [4]: 94 mm Hg
- MAP [4]: 111 mm Hg
- SBP [4]: 146 mm Hg
